Source: PMC12811658, “Design, Synthesis, and Structural Evolution of Pseudo‐Natural Product IDO1 Inhibitors and Degraders” (Angewandte Chemie (International Ed. in English), 2025)

Columns and labels:
[1] = test system: Kyn levels in BxPC3 cells (kynurenine generated by IDO1); assay: Cellular Kyn assay (automated Kyn screening assay); format: cell-based; conditions: Homo sapiens, BXPC-3, 48 h, IFN-γ, L-Trp and compounds 48 h, mean ± SD, read-out: IC50 (Kyn assay), reduction of kynurenine levels
[2] = molecular target: T1, IDO1 protein in IFN-γ stimulated HeLa cells (Homo sapiens, UniProt P14902); assay: IDO1 immunostaining (immunofluorescence); format: cell-based; conditions: 24 h
T1 construct: endogenous in cells; host or cells: HeLa (DSMZ), IFN-γ stimulated
Protocol: Figure 3 Comparison of IDO1 degradation efficiency for selected compounds. a) Detection of IDO1 levels using immunostaining. IFN‐γ stimulated HeLa cells were treated with the compounds for 24 h. IDO1 protein abundance was detected with IDO1 antibody. Data are mean values ± SD, n = 3. b) IDO1 protein levels in BxPC3 cells upon compounds treatment were detected using immunoblotting. BxPC3 cells were treated with IFN‐γ for 24 h prior to washout, followed by addition of compounds. Representative blot and quantified band intensities are shown (mean values ± SD, n = 3). See Figure S11a S12a for the uncropped blots. c) Key functions of hit compounds that influence degradation efficiency. d) Heatmap for IDO degradation efficiency. IDO1 levels were monitored as described in (c). See Table S1 for mean values and Figure S11b for the uncropped blots. e)–g) Dose dependent degradation of IDO1 protein in BxPC3 cells treated with iDeg‐7–9 and detected as described in (c). Representative data of n = 3 except for iDeg‐9 (n = 4). See Figure S12 S13 for the uncropped blots. h) Quantification of IDO1 protein levels from e‐g (mean values ± SD, n = 3 except for iDeg‐9 (n = 4). i) Tabulated inhibition and degradation ability of iDeg‐6–9. ND: not detected. j) Volcano plot of iDeg‐6‐induced changes on the global proteome. SKOV‐3 cells were treated with 10 µM iDeg‐6 or DMSO for 4 h followed by protein extraction, tryptic digest and LC‐MS/MS analysis (n = 4). Plot generated using UMSAP (T 0 = 0.5, S 0 = 0.5).
IFN-γ-stimulated Hela cells (5 ng/mL IFN-γ) were seeded in 96-well plates and incubated for 24 h. Subsequently, IFN-γ was washed out and cells were treated with compounds for additional 24 h. Cells were then washed once with PBS and fixed with 3.7% paraformaldehyde for 10 min at room temperature. Cells were washed three times with ice-cold PBS. […] Images were analyzed by SpectraMax Paradigm microplate reader (Molecular Devices) to extract IDO1 fluorescence intensity as well as the cell count. IDO1 fluorescence intensity was normalized to cell count. […]

[3] = molecular target: IDO1 protein levels in BxPC3 cells (Homo sapiens, UniProt P14902); assay: IDO1 immunoblotting (degradation); format: cell-based; set-up: endogenous in cells; host or cells: BxPC3 (DSMZ), IFN-γ stimulated; conditions: for Max. degradation (%): 24 h incubation, mean ± SD; for IDO1 protein level by immunoblotting (in words): IFN-γ 24 h, washout, compounds 24 h; for Dmax at 0.1 µM: BXPC-3, @100 nM
[4] = molecular target: T2, recombinant full-length human IDO1 (Homo sapiens, UniProt P14902); assay: Thermal shift assay (nanoDSF); format: binding; conditions: 50 µM, 3 h at 37 °C
T2 construct: The GST-tag of IDO1 was removed to obtain untagged full-length IDO1l using PreScission protease; GST (N, cleaved yes); made in house; own inference
Protocol: Incubation at 37 °C for 3 h. Representative data for n = 3. c) Time‐course of heme displacement from IDO1 detected by the absorbance at the Soret peak (404 nm) as a function of time. […] All curves were fit using a one‐site model with N = 1 and defined IDO1 concentration. Left plots show baseline corrected data, while right plots show integrated binding isotherms versus iDegs/IDO1 ratio. IDO1 protein (125 µM) was titrated into the stirred sample cell containing iDegs (25 µM, except for iDeg‐8 at 50 µM). Representative data for n = 3, except for iDeg‐9 (n = 2). g)–i) In vivo activity of iDeg‐6. NSG immunodeficient mice were injected with SKOV‐3 cells. Mice were treated with 18 intraperitoneal injections of iDeg‐6 (30 mg kg^−1) or vehicle. The pharmacological treatment was twice daily. Tumor volume was determined weekly by digital caliper. g) SKOV‐3 tumor growth curves in iDeg‐6‐treated mice (n = 12, green lines) or vehicle‐treated mice (n = 13, gray lines). Statistical analysis was performed by two‐way ANOVA: ****p < 0.001. h) Body weight changes during treatment window (mean values ± range). i) Survival data are shown by Kaplan‐Meier survival analysis. Mantel–Haenszel statistical analysis: p < 0.0001). […]
The test compounds or DMSO (vehicle control) were incubated with recombinant full-length human IDO1 (rhIDO1; 10 µM) in 50 mM potassium phosphate buffer (pH 6.5) for 3 h at 37 °C. Following incubation, samples were centrifuged at 5,000 × g for 10 minutes, then the protein-compound solutions were loaded into capillaries, and thermal unfolding was assessed using the Prometheus Panta system (NanoTemper® Technologies, Germany). Fluorescence intensities at 330 nm and 350 nm were recorded at temperature increments of 0.115 °C from 20 °C to 90 °C. Melting temperatures (Tm) were automatically calculated using Prometheus NT.48 analysis software. The resulting thermal denaturation curves, with Tm defined as the temperature at the maximum derivative of the unfolding transition, were visualized and analysed using GraphPad Prism version 9.0 (GraphPad Software, USA).

[5] = molecular target: T3, heme-bound IDO1 (holo-IDO1) (Homo sapiens, UniProt P14902); assay: UV/Vis detection of heme-bound IDO1 (heme displacement); format: binding; conditions: 50 µM; for heme displacement from holo-IDO1 (in words): 37 °C, 3 h, Soret band 404 nm; for time course of heme displacement (in words): absorbance at 404 nm over time, compared to iDeg-6 and -8
T3 construct: The GST-tag of IDO1 was removed to obtain untagged full-length IDO1l using PreScission protease; GST (N, cleaved yes); made in house; own inference
Protocol: (§1) Incubation at 37 °C for 3 h. Representative data for n = 3. c) Time‐course of heme displacement from IDO1 detected by the absorbance at the Soret peak (404 nm) as a function of time. […] All curves were fit using a one‐site model with N = 1 and defined IDO1 concentration. Left plots show baseline corrected data, while right plots show integrated binding isotherms versus iDegs/IDO1 ratio. IDO1 protein (125 µM) was titrated into the stirred sample cell containing iDegs (25 µM, except for iDeg‐8 at 50 µM). Representative data for n = 3, except for iDeg‐9 (n = 2). g)–i) In vivo activity of iDeg‐6. NSG immunodeficient mice were injected with SKOV‐3 cells. Mice were treated with 18 intraperitoneal injections of iDeg‐6 (30 mg kg^−1) or vehicle. The pharmacological treatment was twice daily. Tumor volume was determined weekly by digital caliper. g) SKOV‐3 tumor growth curves in iDeg‐6‐treated mice (n = 12, green lines) or vehicle‐treated mice (n = 13, gray lines). Statistical analysis was performed by two‐way ANOVA: ****p < 0.001. h) Body weight changes during treatment window (mean values ± range). i) Survival data are shown by Kaplan‐Meier survival analysis. Mantel–Haenszel statistical analysis: p < 0.0001).
Representative data of n=3 biological replicates. c, IDO1 was incubated with compounds (50 µM) or DMSO (control). UV/VIS spectra were acquired at five time points to monitor heme loss over time. Data are representative of two replicates.
The test compounds or DMSO (vehicle control) were incubated with recombinant full-length human IDO1 (rhIDO1; 10 µM) in 50 mM potassium phosphate buffer (pH 6.5) for 3 h at 37 °C. Following incubation, samples were centrifuged at 5,000 × g for 10 minutes. UV/Vis absorption spectra were then recorded from 250 nm to 650 nm in 1 nm increments using UV-transparent microplates (UV-STAR®, Greiner Bio-One, Austria) on a Spark® multimode microplate reader (Tecan, Austria). Absorbance values were analyzed at 404 nm (A404), and were plotted using GraphPad Prism version 9.0 (GraphPad Software, USA).

recombinant human IDO1 = molecular target: T4, recombinant human IDO1 (Homo sapiens, UniProt P14902); assay: IDO1 enzymatic assay in vitro; format: biochemical; conditions: pre-incubation 37 °C 45 min; for inhibition at 14 µM: mean ± SD; for IDO1 activity IC50 [µM] (in vitro assay) / IC50: determined if inhibition at 14 µM higher than 50%
T4 construct: The GST-tag of IDO1 was removed to obtain untagged full-length IDO1l using PreScission protease; GST (N, cleaved yes); made in house; own inference

[6] = molecular target: T2, recombinant full-length human IDO1; assay: Isothermal titration calorimetry (ITC); format: binding; conditions: 25 °C
Protocol: as §1
ITC was performed using the MicroCal PEAQ-ITC system (Malvern) at 25 °C. Recombinant human full-length IDO1 (rhIDO1) was buffer-exchanged into 100 mM phosphate buffer (50 mM KH₂PO₄ and 50 mM K₂HPO₄, pH 6.57) with 1 mM TECP using a 10 K Amicon® Ultra centrifugal filter (Millipore). The buffer exchange was repeated ten times to ensure complete removal of interfering components. The final protein sample was diluted in the same phosphate buffer prior to titration.125 μM protein in 100 mM phosphate buffer was loaded into the syringe, while 25 μM compound (except for iDeg-8, 50 μM) in 100 mM phosphate buffer was loaded to the cell. All samples were adjusted to 25 °C and degassed before loading. Titrations were performed at 25 °C with one injection of 0.4 µL, followed by 18 injections of 2 µL. Experiments were performed with three biological replicates except for iDeg-9 with two biological replicates. Data were analyzed using the MicroCal PEAQ-ITC Analysis software and were plotted using GraphPad Prism 9.0 (GraphPad, USA).

T4 sequence (P14902 whole entry): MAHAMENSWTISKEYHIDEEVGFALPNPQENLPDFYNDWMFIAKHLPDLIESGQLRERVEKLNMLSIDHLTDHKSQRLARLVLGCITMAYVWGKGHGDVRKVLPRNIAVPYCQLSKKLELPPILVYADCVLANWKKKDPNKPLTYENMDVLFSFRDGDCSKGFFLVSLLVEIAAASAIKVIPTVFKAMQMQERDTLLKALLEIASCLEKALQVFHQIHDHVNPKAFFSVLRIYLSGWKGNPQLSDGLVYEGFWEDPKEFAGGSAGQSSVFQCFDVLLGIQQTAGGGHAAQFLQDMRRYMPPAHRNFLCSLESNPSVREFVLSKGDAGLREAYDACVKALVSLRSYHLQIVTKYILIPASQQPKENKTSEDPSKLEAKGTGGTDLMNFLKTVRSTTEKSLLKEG
Sequence of IDO1 protein levels in BxPC3 cells (P14902 whole entry): as above
T2 sequence (P14902 whole entry): as above
T3 sequence (P14902 whole entry): as above
T1 sequence (P14902 whole entry): as above

| SMILES | IC50 [1] | IDO1 staining fluorescence intensity (in words) [2] | Max. degradation (%) ([3]; 10 nM) | Max. degradation (%) ([3]; 100 nM) | Degradation Efficiency (%) ([3]; 100 nM, BxPC3 cells, heatmap Fig. 3d) | IDO1 protein level by immunoblotting (in words) ([3]; BxPC3 cells) | shift in IDO1 melting temperature ΔTm / binding in TSA (in words) [4] | heme displacement from holo-IDO1 (in words) [5] | inhibition at 14 µM (recombinant human IDO1) | IDO1 activity IC50 [µM] (in vitro assay) (recombinant human IDO1) | Dmax at 0.1 µM ([3]; BxPC3 cells) | DC50 ([3]; BxPC3 cells, ND: not detected, read-out: DC50 (half-maximal degradation concentration)) | -TΔS (ITC) [6] | ΔG (ITC) [6] | ΔH (ITC) [6] | Kd ([6]; one-site model) | IC50 (recombinant human IDO1) | time course of heme displacement (in words) [5] | Kd [6] |
| --- | --- | --- | --- | --- | --- | --- | --- | --- | --- | --- | --- | --- | --- | --- | --- | --- | --- | --- | --- |
| CC(C)(C)c1ccc(S(=O)(=O)N2C[C@H]3C[C@H]4C[C@H](C4(C)C)[C@@]3(COC(=O)Nc3ccc(I)cc3)C2)cc1 [14 (iDeg-2)] | 120 ± 20 nM | reduced the fluorescence intensity of the IDO1 staining | 20 ± 9 (3) % | 37 ± 14 (3) % | 37% | modulate IDO1 abundance | identical binding in the TSA assay | displaced heme to a similar extent | < 25% | – (Inactive: >75% Kyn level observed up to a concentration of 14 µM and no IC50 value obtained) |  |  |  |  |  |  |  |  |  |
| Cc1ccc(NC(=O)OC[C@]23CN(S(=O)(=O)c4ccc(C(C)(C)C)cc4)C[C@H]2C[C@H]2C[C@@H]3C2(C)C)cc1 [10 (iDeg-1), ((3aS,4R,6R,7aS)-2-((4-(tert-butyl)phenyl)sulfonyl)-5,5-dimethyloctahydro-3aH-4,6-methanoisoindol-3a-yl)methyl p-tolylcarbamate] | 830 ± 310 nM | reduced the fluorescence intensity of the IDO1 staining |  |  |  | modulate IDO1 abundance |  |  | < 25% | – (Inactive: >75% Kyn level observed up to a concentration of 14 µM and no IC50 value obtained) |  |  |  |  |  |  |  |  |  |
| C#Cc1ccc(NC(=O)OC[C@]23CN(S(=O)(=O)c4ccc(C(C)(C)C)cc4CC)C[C@H]2C[C@H]2C[C@@H]3C2(C)C)cc1 [99 (iDeg-8), ((3aS,4R,6R,7aS)-2-((4-(tert-butyl)-2-ethylphenyl)sulfonyl)-5,5-dimethyloctahydro-3aH-4,6-methanoisoindol-3a-yl)methyl (4-ethynylphenyl)carbamate] | 9.7 ± 2 nM |  | 66 ± 4 (3) % | 75 ± 7 (3) % |  |  |  |  | 61 ± 1% |  | 75% | 3 nM | 3.5 kcal/mol | -8.2 kcal/mol | -11.8 ± 0.7 kcal/mol | 940 nM | 4 ± 3.3 µM |  |  |
| C#Cc1ccc(NC(=O)OC[C@]23CN(S(=O)(=O)c4ccc(C(C)(C)C(=O)O)cc4C)C[C@H]2C[C@H]2C[C@@H]3C2(C)C)cc1 [102 (iDeg-9), 2-(4-(((3aS,4R,6R,7aS)-3a-((((4-ethynylphenyl)carbamoyl)oxy)methyl)-5,5-dimethyloctahydro-2H-4,6-methanoisoindol-2-yl)sulfonyl)-3-methylphenyl)-2-methylpropanoic acid] | 5 nM |  | 20 ± 9 (9) % | 21 ± 20 (9) % |  | barely affected the IDO1 level | highest ΔT m value | most efficient heme displacement | 64 ± 1% |  | 21% |  | 15.6 kcal/mol | -9.1 kcal/mol | -24.7 ± 0.3 kcal/mol | 220 ± 20 nM | 0.089 ± 0.03 µM | faster | 215 nM |
| C#Cc1ccc(NC(=O)OC[C@]23CN(S(=O)(=O)c4ccc(C(C)(C)C(=O)O)cc4)C[C@H]2C[C@H]2C[C@@H]3C2(C)C)cc1 [101 (iDeg-7), 2-(4-(((3aS,4R,6R,7aS)-3a-((((4-ethynylphenyl)carbamoyl)oxy)methyl)-5,5-dimethyloctahydro-2H-4,6-methanoisoindol-2-yl)sulfonyl)phenyl)-2-methylpropanoic acid] | 21 ± 6 nM |  | 36 ± 10 (5) % | 54 ± 8 (5) % |  | only moderately reduced the IDO1 protein level |  | most efficient heme displacement | 75 ± 4% |  |  |  | 13.2 kcal/mol | -9.4 kcal/mol | -22.6 ± 0.4 kcal/mol | 120 ± 20 nM | 0.31 ± 0.06 µM | faster | 122 nM |
